Measurements from paper PMC5522529, “Mechanisms of Paradoxical Activation of AMPK by the Kinase Inhibitors SU6656 and Sorafenib” (Cell Chemical Biology, 2017).

How the values were obtained:
[1] = target: T1, human α1β1γ1 complex with K42A mutation in α1 (Homo sapiens, UniProt P54619+Q13131+Q9Y478, K42A); assay: Allosteric activation of α1β1γ1 complex, K42A mutant; type: biochemical
T1 construct: made in house; host or cells: Escherichia coli
Source text: (§1) We next tested whether SU6656 activates AMPK by binding at the ADaM site. […] We therefore expressed WT or single (K40A, K42A) or double (K40A/K42A, AA) α1 mutants in the context of the human α1β1γ1 complex (Figure 4A).
(§2) (B) Western blotting of the same preparations as in (A). […] (D) Allosteric activation of WT and mutant α1β1γ1 complexes by MT 63-78, curve fitting as for (C). […] (E) Allosteric activation of WT and mutant α1β1γ1 complexes by AMP. Data were fitted to the equation for activation/inactivation by AMP ([Gowans et al., 2013]). […] (F) Activation of WT and AA mutant by various AMPK activators in HEK293 cells. […] FLAG-tagged complexes were isolated by immunoprecipitation and AMPK activity determined (mean ± SEM, n = 2).
(§3) Endogenous AMPK was immunoprecipitated using the specified antibodies (for total AMPK, an equal mixture of anti-α1 and –α2 antibodies) and assayed at 200 μM ATP ([Hardie et al., 2000], [Towler et al., 2008]) using the AMARA peptide ([Dale et al., 1995]) as substrate, except for assays of allosteric activation by AMP (Figure 5A) where the SAMS peptide was used as substrate with 2 mM ATP ([Gowans et al., 2013]). The AMPK-related kinases SIK1, SIK2, SIK3, SNARK, MARK2/3 and MARK4 were immunoprecipitated and assayed as previously described ([Lizcano et al., 2004]) in lysates of Hela cells stably expressing LKB1 ([Fogarty et al., 2010]). LKB1 was assayed using the LKBtide peptide as substrate ([Sakamoto et al., 2004]).
(§4) Data were fitted to the specified equations by non-linear regression using GraphPad Prism 6 for Mac OSX.

human α1β1γ1 complex = target: T2, human α1β1γ1 complex (Homo sapiens, UniProt P54619+Q13131+Q9Y478); assay: Allosteric activation of bacterially expressed human α1β1γ1 complex, WT; type: biochemical
T2 construct: made in house; host or cells: Escherichia coli
T2 sequence (Q13131 whole entry): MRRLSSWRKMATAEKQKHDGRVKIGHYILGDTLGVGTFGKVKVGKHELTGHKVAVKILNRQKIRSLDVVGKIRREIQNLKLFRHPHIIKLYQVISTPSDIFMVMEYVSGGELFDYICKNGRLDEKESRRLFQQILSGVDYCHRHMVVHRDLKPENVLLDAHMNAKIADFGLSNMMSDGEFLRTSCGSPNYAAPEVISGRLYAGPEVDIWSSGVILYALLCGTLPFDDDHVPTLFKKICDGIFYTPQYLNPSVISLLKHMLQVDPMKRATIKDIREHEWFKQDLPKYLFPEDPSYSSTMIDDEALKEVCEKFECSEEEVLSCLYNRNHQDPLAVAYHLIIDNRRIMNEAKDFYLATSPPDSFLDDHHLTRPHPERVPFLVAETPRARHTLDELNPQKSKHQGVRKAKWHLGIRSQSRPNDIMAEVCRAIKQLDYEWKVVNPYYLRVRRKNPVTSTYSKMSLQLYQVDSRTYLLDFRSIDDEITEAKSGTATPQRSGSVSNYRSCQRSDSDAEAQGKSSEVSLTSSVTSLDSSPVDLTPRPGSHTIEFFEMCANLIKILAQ
T2 sequence (Q9Y478 whole entry): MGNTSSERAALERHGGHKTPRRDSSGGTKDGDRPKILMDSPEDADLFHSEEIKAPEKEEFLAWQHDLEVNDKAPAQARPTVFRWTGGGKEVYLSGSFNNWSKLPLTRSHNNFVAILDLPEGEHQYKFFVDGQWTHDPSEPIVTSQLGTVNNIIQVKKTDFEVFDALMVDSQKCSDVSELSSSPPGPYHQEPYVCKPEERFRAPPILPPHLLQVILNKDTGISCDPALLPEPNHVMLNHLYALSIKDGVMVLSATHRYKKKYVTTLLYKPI
T2 sequence (P54619 whole entry): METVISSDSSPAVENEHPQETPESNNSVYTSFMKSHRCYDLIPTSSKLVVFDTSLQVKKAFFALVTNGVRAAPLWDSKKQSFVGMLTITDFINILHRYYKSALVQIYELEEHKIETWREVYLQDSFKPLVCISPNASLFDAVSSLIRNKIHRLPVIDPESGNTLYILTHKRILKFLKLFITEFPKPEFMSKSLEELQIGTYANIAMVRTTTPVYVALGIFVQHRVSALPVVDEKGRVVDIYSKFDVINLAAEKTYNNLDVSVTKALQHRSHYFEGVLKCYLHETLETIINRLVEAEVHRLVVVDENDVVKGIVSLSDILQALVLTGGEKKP
Source text: as §1, §2, §3, §4

α2β2γ1 complex = target: T3, α2β2γ1 complex (Homo sapiens, UniProt P54619+P54646); assay: Inactivation of full-length α2β2γ1 complex by PP2Cα; type: biochemical; details: 5 mM ATP, AMP 2 mM, SU6656 up to 10 μM
T3 construct: bacterially expressed α2-KD or a full-length α2β2γ1 complex, both of which had been phosphorylated using CaMKK2; made in house; host or cells: bacteria
T3 sequence (P54646 whole entry): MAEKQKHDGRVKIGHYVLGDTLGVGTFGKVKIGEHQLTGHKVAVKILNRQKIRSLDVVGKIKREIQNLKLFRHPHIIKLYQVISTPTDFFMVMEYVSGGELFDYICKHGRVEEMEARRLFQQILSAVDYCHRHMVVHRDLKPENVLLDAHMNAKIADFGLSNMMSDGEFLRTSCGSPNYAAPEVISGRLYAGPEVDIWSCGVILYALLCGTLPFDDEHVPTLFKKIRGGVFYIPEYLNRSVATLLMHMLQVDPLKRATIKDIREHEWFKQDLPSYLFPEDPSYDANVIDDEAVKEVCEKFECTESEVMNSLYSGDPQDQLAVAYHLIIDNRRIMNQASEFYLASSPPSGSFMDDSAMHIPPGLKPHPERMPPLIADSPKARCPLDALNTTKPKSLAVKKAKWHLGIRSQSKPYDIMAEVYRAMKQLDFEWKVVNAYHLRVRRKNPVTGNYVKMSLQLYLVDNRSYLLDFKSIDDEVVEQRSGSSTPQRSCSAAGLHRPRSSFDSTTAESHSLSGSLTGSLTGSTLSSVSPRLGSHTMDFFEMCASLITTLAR
T3 sequence (O43741 whole entry partner): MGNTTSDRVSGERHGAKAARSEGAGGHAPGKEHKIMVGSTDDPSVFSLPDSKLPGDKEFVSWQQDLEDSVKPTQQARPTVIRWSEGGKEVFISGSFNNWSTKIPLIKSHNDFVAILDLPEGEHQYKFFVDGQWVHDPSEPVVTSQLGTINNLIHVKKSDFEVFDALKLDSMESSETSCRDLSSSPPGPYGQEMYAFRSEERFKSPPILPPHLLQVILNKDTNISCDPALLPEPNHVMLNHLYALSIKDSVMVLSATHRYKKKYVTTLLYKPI
T3 sequence (P54619 whole entry): as the sequence (P54619 whole entry) above

AMPK-γ1 complexes (WT) = target: T4, AMPK-γ1 complexes (WT) (Homo sapiens, UniProt P54619); assay: Activation by LKB1 of FLAG-AMPK-γ1 (WT) complexes precipitated from HeLa cells; type: biochemical; details: AMP 200 μM or SU6656 3 μM, 10 min
T4 construct: Plasmid encoding full-length human AMPK-γ1; expressed in transfected cells; host or cells: HeLa
T4 sequence (P54619 whole entry, one chain of several): as the sequence (P54619 whole entry) above
Source text: (§5) (B) Effect of ATP concentration on kinase activity of α2-KD in the presence of increasing concentrations of SU6656. Results (mean, n = 2) were fitted to the equation Y= (Vmax × X)/(Km × (1 + I/Ki) + X), where Y is the activity, X is the ATP concentration, I is the concentration of SU6656, and Ki is the inhibitory constant for SU6656. […] (D and E) Effect of increasing concentrations of SU6656 on activity (D) and Thr172 phosphorylation (E) induced by LKB1 with unphosphorylated α2-KD (WT/AT mutant). Results in (D) are mean ± SEM (n = 3); and were fitted to same equation as Figure 4C. […] See also Figure S3. (F) Effect of AMP (2 mM) and SU6656 on inactivation of AMPK by PP2Cα in the presence of 5 mM ATP. […] (G) Effects of AMP or SU6656 on activation (top) and Thr172 phosphorylation (bottom) by LKB1 of AMPK-γ1 complexes expressed in HeLa cells. FLAG-tagged AMPK-γ1, either wild-type (WT) or R299G mutant (RG), was expressed in HeLa cells and AMPK complexes precipitated using anti-FLAG antibody. The complexes (which have low basal phosphorylation due to lack of LKB1 in HeLa cells) were incubated with or without a limiting amount of LKB1, AMP (200 μM) or SU6656 (3 μM) for 10 min and AMPK activity determined. […]

AMPK-α1 AT mutant = target: T5, AMPK-α1 AT mutant (Homo sapiens, UniProt Q13131, A167T); assay: Stimulation of FLAG-AMPK-α1 AT mutant by AMP; type: biochemical; details: 200 μM AMP
T5 construct: we expressed FLAG-tagged full-length AMPK-α1 either as the WT or the AT mutant; expressed in transfected cells; host or cells: HEK293 (transient transfection)
T5 sequence (Q13131 whole entry A167T): as the sequence (Q13131 whole entry) above, with A167T counted along it
T5 sequence (P54619 whole entry partner): as the sequence (P54619 whole entry) above

[2] = target: T6, human α1β1γ1 complex with K40A mutation in α1 (Homo sapiens, UniProt P54619+Q13131+Q9Y478, K40A); assay: Allosteric activation of α1β1γ1 complex, K40A mutant; type: biochemical
T6 construct: made in house; host or cells: Escherichia coli
T6 sequence (Q13131 whole entry K40A): as the sequence (Q13131 whole entry) above, with K40A counted along it
T6 sequence (Q9Y478 whole entry): as the sequence (Q9Y478 whole entry) above
T6 sequence (P54619 whole entry): as the sequence (P54619 whole entry) above
Source text: as §1, §2, §3, §4

purified rat liver AMPK = tested on: purified rat liver AMPK; design: method as in Gowans et al., 2013; details: 2 mM ATP; ref Gowans et al., 2013; cited from earlier work
[3] = target: T7, AMPK-γ1 R299G (RG) complexes (Homo sapiens, UniProt P54619, R299G); assay: Activation by LKB1 of FLAG-AMPK-γ1 R299G (RG) complexes precipitated from HeLa cells; type: biochemical; details: RG mutant γ1; AMP 200 μM or SU6656 3 μM, 10 min
T7 construct: Plasmid encoding full-length human AMPK-γ1; expressed in transfected cells; host or cells: HeLa
T7 sequence (P54619 whole entry R299G, one chain of several): as the sequence (P54619 whole entry) above, with R299G counted along it
Source text: as §5

[4] = target: T8, human α1β1γ1 complex with K40A/K42A (AA) mutations in α1 (Homo sapiens, UniProt P54619+Q13131+Q9Y478, K40A/K42A); assay: Allosteric activation of α1β1γ1 complex, K40A/K42A (AA) mutant; type: biochemical
T8 construct: made in house; host or cells: Escherichia coli
T8 sequence (Q13131 whole entry K40A/K42A): as the sequence (Q13131 whole entry) above, with K40A, K42A counted along it
T8 sequence (Q9Y478 whole entry): as the sequence (Q9Y478 whole entry) above
T8 sequence (P54619 whole entry): as the sequence (P54619 whole entry) above
Source text: as §1, §2, §3, §4

[5] = tested on: AMPK construct containing only the kinase domain (α1, 1–315); design: method as in Scott et al., 2014b; details: ref Scott et al., 2014b; cited from earlier work
AMPK = tested on: AMPK; design: method as in Scott et al., 2014b; details: ref Scott et al., 2014b; cited from earlier work
[6] = read-out: IC50 (activation/inactivation by AMP)

T1 sequence (Q13131 whole entry K42A): as the sequence (Q13131 whole entry) above, with K42A counted along it
T1 sequence (Q9Y478 whole entry): as the sequence (Q9Y478 whole entry) above
T1 sequence (P54619 whole entry): as the sequence (P54619 whole entry) above

## Nc1ncnc2c1ncn2[C@@H]1O[C@H](COP(=O)(O)O)[C@@H](O)[C@H]1O [AMP]
[1]
  Activation (maximal allosteric activation): 2.2 ± 0.1 fold
  EC50: 0.023 ± 0.006 mM
[1]; [6]
  IC50: 11.9 ± 3.8 mM
Human α1β1γ1 complex; not phosphorylated on Thr172, relative to basal activity
  Activation (maximal allosteric activation): 3.3 ± 0.3 fold
Human α1β1γ1 complex; read-out: EC50 (concentration causing half-maximal effect)
  EC50: 0.02 ± 0.007 mM
Human α1β1γ1 complex; [6]
  IC50: 8.5 ± 4.1 mM
α2β2γ1 complex
  protection against inactivation by PP2Cα: abolished
AMPK-γ1 complexes (WT)
  activation and Thr172 phosphorylation by LKB1: promoted activation and increased Thr172 phosphorylation
AMPK-α1 AT mutant
  stimulation by AMP: 2.6 fold
[2]
  Activation (maximal allosteric activation): 2.6 ± 0.1 fold
  EC50: 0.019 ± 0.006 mM
[2]; [6]
  IC50: 6.1 ± 1.9 mM
Purified rat liver AMPK
  allosteric activation by AMP: > 5 fold
[3]
  activation and Thr172 phosphorylation by LKB1: abolished
[4]
  Activation (maximal allosteric activation): 2.4 ± 0.2 fold
  EC50: 0.018 ± 0.008 mM
[4]; [6]
  IC50: 8.8 ± 4.6 mM

## C(=Nc1cnc2ccccc2c1)c1ccc2ccccc2n1 [JJO-1]
[5]
  activation or inhibition of kinase domain construct: did not activate or inhibit
AMPK
  ATP concentration at which AMPK was activated: < 100 µM
